“Also recorded” adds a separate entry of the source. Where two headings read alike, the source gives them in different places.
What was measured:
[1] = system: mouse adult neural stem cells; conditions: for cell protection and NSC differentiation under amyloid-beta cytotoxicity: 10 μM amyloid-beta, each at its optimal concentration (AS703026 10, AZD8330 1, PD318088 1, binimetinib 10, refametinib 1, PD0325901 10, RO5126766 10 μM); for cell toxicity / cell death (morphology): AS703026 10 μM; for concentration at which the differentiation-inducing effect starts: no amyloid-beta
Protocol: NSC were isolated from the subventricular zone of week 8 mouse brain, treated with 20 ng/ml human basic fibroblast growth factor (bFGF) and 20 ng/ml human epidermal growth factor (EGF) in an IPM medium, and cultured as a suspension in 24-well plates for 7 days.
Two days before the isolation of single cells, 6-well plates were prepared by treating the wells with 10 μg/ml poly-L-ornithine solution and incubating overnight at room temperature for coating. The next day, poly-L-ornithine solution was removed and the plates were washed 3 times with sterilized triple distilled water. […] The culture solution used is N2 culture medium (supplemented with 20 ng/ml bFGF and 20 ng/ml EGF). Right before seeding, the coating solution was suctioned out, and the single cells were uniformly seeded into the culture plate before the plate dried up. Cells were allowed to attach to the plates for about one minute, and after checking that cells were sufficiently attached, an additional 1.5 ml of culture medium (N2 culture medium with 20 ng/ml bFGF and 20 ng/ml EGF) was added to the cells and cultured in a 37° C. incubator for 24 hours.
Wells not treated with amyloid-beta were left to use as negative controls.
Gibco's (Waltham, Mass.) human Aβ (1-42) was purchased to use for the amyloid-beta (Aβ), and the following process was followed to create oligomers. First, amyloid-beta was dissolved in 100% HFIP (1,1,1,3,3,3-hexafluoro-2-propanol) (Sigma, cat#.105228) to obtain a concentration of 1 mg/ml and vortexed at room temperature for 1 hour. Then, it was dried for 10 minutes in a speed Vac, after which DMSO (Sigma, cat#.D2650) was added to bring the concentration to 5 mM and then lightly vortexed at room temperature for 10 minutes. […] The solution was incubated at 4° C. for 24 hours and then added into the cultured cells.
The NCSs were cultured with the daily addition of EGF, bFGF, amyloid-beta, and test materials for 4 days.

[2] = system: mouse embryonic neural stem cells; test: Immunocytochemistry analysis, Tuj1 and DAPI staining (Example 3); type: cell-based; conditions: 4 days
Protocol: Tuj1 (Neuron specific class III beta-tubulin) is a neuron specific marker protein, which was conjugated to rhodamine to show fluorescent red, while DAPI binds to the cell DNA and stains the cell nuclei fluorescent blue. […] The medium was removed and the cells were washed with PBS. After fixing with 10% formaldehyde (Sigma cat#. HT501128) at room temperature for 10 minutes, they were washed again with PBS. They were permeabilized with 0.2% Triton X-100 (Sigma, cat#. 93443) at room temperature for 15 minutes, washed with PBS, and incubated with 10% BSA (Sigma, cat#. A2153)+1% normal goat serum (Vector lab, Burlingame, Calif., cat#. S1000) at room temperature for 1 hour. […] The solution was removed, washed with PBS, and incubated at room temperature for 1 hour with the secondary antibody (rhodamine-conjugated antibody) diluted in 1% BSA+1% normal goat serum at a ratio of 1:200. Then, the cells were washed with PBS, incubated with 5 μg/ml DAPI (Sigma, cat#. D9542) for 5 minutes, washed with PBS again, and mounted on a slide glass for analysis with a fluorescent microscope.

[3] = system: mouse embryonic neural stem cells; test: qRT-PCR of relative mRNA expression of neuronal markers in mouse embryonic NSC (Examples 4-1, 4-2, 6); type: cell-based; conditions: 10 μM (10000 nM)
Protocol: Isopropanol (Ducsan, GyunggiDo, Korea, cat#. 67-63-0) was added and mixed for RNA isolation, then centrifuged again to remove the supernatant and obtain the pellet. The RNA pellet was resuspended in 75% ethanol (Ducsan, cat#. 64-17-15), centrifuged, and the supernatant removed. The pellet was then resuspended in sterilized triple distilled water to obtain the mRNA, incubated for 10 minutes at 55° C., and stored at −80° C.
Sterilized triple distilled water, […] oligo dT, and 1 mM dNTP were added to the RNA and incubated for 5 minutes at 65° C. This was followed by the addition of 5X First-strand buffer, 10 mM DTT, and M-MLV reverse transcriptase and incubated at 42° C. for 1 hour, then at 72° C. for 15 minutes, and at 4° C. for 30 minutes. The synthesized cDNA was stored at −20° C.
The term relative mRNA expression level signifies that in order to normalize each group's total RNA level, the mRNA expression level of each differentiation marker is divided by the expression level of GAPDH whose expression level is fairly constant across cells, and then the values of each test material are compared with those of the controls (undifferentiated NSC) in each group.

[4] = system: mouse embryonic neural stem cells; test: Morphology analysis of NSC differentiation in mouse embryonic neural stem cells (Examples 1, 6); type: cell-based; conditions: for concentration at which differentiation morphology starts: tested at 0.1, 1.0, 10 μM
Protocol: Neural stem cells were isolated from the brain of a day 14.5 mouse embryo, treated with 10 ng/ml human basic fibroblast growth factor (bFGF) (Peprotech, Princeton, NG, cat#.100-18B) and 20 ng/ml human epidermal growth factor (EGF) (Peprotech, cat#. AF-100-15) in a N2 culture medium, and cultured in suspension in a 25 cm2 flask (Nunc, Pittsburgh, Pa.) for 4 days. Formation of neurospheres was observed after 2 days.
In order to isolate single cells, 6-well plates were prepared the day before by treating the wells with 15 μg/ml poly-L-ornithine (Sigma, St. Louis, Mo., cat#.P2533) solution and incubating overnight at 37° C. for coating. The day of the single cell isolation, poly-L-ornithine solution was removed, the plates were washed with PBS three times, and 10 μg/ml fibronectin (Gibco, Waltham, Mass., cat#. 33016015) solution was added and incubated at 37° C. for 2 hours for coating.
Various concentrations of the compound of [Formula 1] […]

MEK 1, MEK2 = conditions: literature reference; cited from earlier work
MEK1 = MEK1 (Homo sapiens (Human), UniProt Q02750); conditions: cited from earlier work
MEK2 = MEK2 (Homo sapiens (Human), UniProt P36507); conditions: cited from earlier work
[5] = trametinib 10 nM, 100 nM, memantine 5 μM, 10 μM, 4 days
[6] = 1.0 nM and 10 nM, day 2 of culture
[7] = 1.0 μM and 10 μM, day 2 of culture

Sequence of MEK1 (Q02750 whole entry, species assumed): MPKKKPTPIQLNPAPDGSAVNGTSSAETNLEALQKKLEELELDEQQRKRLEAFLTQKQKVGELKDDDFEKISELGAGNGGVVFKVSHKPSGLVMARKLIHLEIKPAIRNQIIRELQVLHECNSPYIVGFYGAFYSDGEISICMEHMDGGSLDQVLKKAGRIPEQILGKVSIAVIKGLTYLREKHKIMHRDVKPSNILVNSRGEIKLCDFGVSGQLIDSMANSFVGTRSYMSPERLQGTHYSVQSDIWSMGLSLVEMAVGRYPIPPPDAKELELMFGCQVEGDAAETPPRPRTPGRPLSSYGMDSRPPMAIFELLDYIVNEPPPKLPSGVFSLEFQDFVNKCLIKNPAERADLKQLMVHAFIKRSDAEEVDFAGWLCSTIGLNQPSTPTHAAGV
Sequence of MEK2 (P36507 whole entry, species assumed): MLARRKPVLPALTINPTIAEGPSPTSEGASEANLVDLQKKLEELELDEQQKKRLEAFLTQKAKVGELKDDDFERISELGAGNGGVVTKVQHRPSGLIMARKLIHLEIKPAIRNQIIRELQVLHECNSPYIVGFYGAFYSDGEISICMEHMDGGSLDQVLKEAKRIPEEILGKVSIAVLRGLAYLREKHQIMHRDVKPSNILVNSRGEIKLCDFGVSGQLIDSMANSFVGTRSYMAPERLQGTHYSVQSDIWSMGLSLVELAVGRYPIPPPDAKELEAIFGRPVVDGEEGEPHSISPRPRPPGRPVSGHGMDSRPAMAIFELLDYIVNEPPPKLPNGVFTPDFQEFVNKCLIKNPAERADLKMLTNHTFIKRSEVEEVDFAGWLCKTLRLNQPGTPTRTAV

O=C(NC[C@H](O)CO)c1ccncc1Nc1ccc(I)cc1F [AS703026]
cell protection and NSC differentiation under amyloid-beta cytotoxicity ([1]; day 2): provided cell protection and induced the differentiation of NSC
concentration required for neuronal differentiation ([1]; regardless of 10 μM amyloid-beta treatment, 4 days): 10 µM
cell toxicity / cell death (morphology) [1, 5]: did not elicit cell toxicity
neuron differentiation by Tuj1 staining ([2]; 0.1 μM): no differentiation was observed
neuron differentiation by Tuj1 staining ([2]; 1.0 μM): neuron differentiation occurs at this concentration, albeit only to a marginal extent
Tuj1 and TH mRNA expression compared with trametinib [3]: comparable to those of 25 nM trametinib
concentration required for neuronal differentiation to initiate ([4]; added daily, 4 days of culture): 1.0 µM
concentration at which differentiation morphology starts ([4]; day 2 of culture): 10 μM

BI847325
cell proliferation (morphology) [1, 6]: cell proliferation seemed to be somewhat inhibited
differentiation-inducing effect (morphology) [1, 6]: a differentiation-inducing effect was not observed
differentiation-inducing effect (morphology) ([1]; 0.1 μM, day 2 of culture): only a weak differentiation-inducing effect
cell death (morphology) [1, 7]: all the cells died

O=C(NOCC(O)CO)c1cc(Br)c(F)c(F)c1Nc1ccc(I)cc1F (stereo not drawn) [PD318088]
cell protection and NSC differentiation under amyloid-beta cytotoxicity ([1]; day 2): provided cell protection and induced the differentiation of NSC
concentration at which differentiation morphology starts ([4]; day 2 of culture): 1.0 μM

Cn1cnc2c(F)c(Nc3ccc(Br)cc3F)c(C(=O)NOCCO)cc21 [binimetinib]
cell protection and NSC differentiation under amyloid-beta cytotoxicity ([1]; day 2): provided cell protection and induced the differentiation of NSC
IC50 (MEK 1, MEK2): 12 nM
concentration at which differentiation morphology starts ([4]; day 2 of culture): 10 μM

O=C(NOC[C@H](O)CO)c1ccc(F)c(F)c1Nc1ccc(I)cc1F [PD0325901]
concentration at which the differentiation-inducing effect starts ([1]; day 2 of culture): 0.1 µM

CC12CC3CC(C)(C1)CC(N)(C3)C2 [memantine]
cell toxicity / cell death (morphology) [1, 5]: death of neural stem cells
differentiation of NSC into neurons (morphology) ([1]; with or without 10 μM oligomeric Aβ(1-42), trametinib 10 nM, 100 nM, memantine 5 μM, 10 μM, 4 days): the differentiation of NSC into neurons was not observed

Cc1cc(C(=O)NOCCO)c(Nc2ccc(I)cc2F)n(C)c1=O [AZD8330]
cell protection and NSC differentiation under amyloid-beta cytotoxicity ([1]; day 2): provided cell protection and induced the differentiation of NSC
concentration at which differentiation morphology starts ([4]; day 2 of culture): 1.0 μM

N#CC(=C(/N)Sc1ccccc1N)/C(C#N)=C(\N)Sc1ccccc1N [U0126]
cell proliferation (morphology) ([1]; 0.1 μM and 1.0 μM, day 2 of culture): inhibition of cell proliferation
differentiation-inducing effect (morphology) ([1]; 2.5 μM, day 2 of culture): did not show any clear differentiation-inducing effect
cytotoxicity (morphology) ([1]; 10 μM, day 2 of culture): showed cell cytotoxicity
NSC differentiation-inducing effect (morphology) ([1]; all concentrations tested): failed to show any NSC differentiation-inducing effect

COc1cc(F)c(F)c(Nc2ccc(I)cc2F)c1NS(=O)(=O)C1(C[C@H](O)CO)CC1 [refametinib]
cell protection and NSC differentiation under amyloid-beta cytotoxicity ([1]; day 2): provided cell protection and induced the differentiation of NSC
concentration at which differentiation morphology starts ([4]; day 2 of culture): 1.0 μM

CNS(=O)(=O)Nc1nccc(Cc2c(C)c3ccc(Oc4ncccn4)cc3oc2=O)c1F [RO5126766]
cell protection and NSC differentiation under amyloid-beta cytotoxicity ([1]; day 2): provided cell protection and induced the differentiation of NSC
concentration at which the differentiation-inducing effect starts ([1]; day 2 of culture): 1.0 µM

O=C(NOCC1CC1)c1ccc(F)c(F)c1Nc1ccc(I)cc1Cl [PD184352]
NSC differentiation-inducing effect (morphology) ([4]; 0.1 μM, day 2 of culture): only a weak NSC differentiation-inducing effect
cell death (morphology) [4, 7]: all the cells died

O=C(c1ccc(F)c(F)c1Nc1ccc(I)cc1F)N1CC(O)([C@@H]2CCCCN2)C1 [cobimetinib]
selectivity toward MEK1 compared with MEK2 (MEK1; Molecules 2017;22:1551): ≥ 100 ×
IC50 (MEK1): 0.95 nM
IC50 (MEK2): 199 nM
differentiation of adult NSC (morphology) ([1]; 10 μM, regardless of amyloid-beta, day 2): did not induce the differentiation of adult NSC; also recorded: does not induce the differentiation of mouse adult neural stem cells

Source: US11147816B2, “Composition for inducing differentiation and protection of neural stem cells and method for inducing neuro-regeneration using the same composition” (GENUV Inc., priority 2016, dated 2021)
